Data published in patent publication US20070213339A1 (Bayer Pharmaceuticals Corporation, priority 2004, published 2007).

Each compound was assayed on Colo205 human colon carcinoma cell line (assay: In vitro tumor cell proliferation assay (MTS, CellTiter 96 Aqueous One Solution)). Conditions: COLO 205, Colo205 cells, 72 hours compound exposure, MTS absorbance at 490 nm, read-out: IC50 (concentration of test compound required to inhibit proliferation of 50% of the cells).
Type: cell-based
Outline: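 Proliferation measured as MTS tetrazolium reduction (490 nm) after 72 h compound exposure at 37 °C. Cells plated at 2000 per well in serum-supplemented RPMI-1640; duplicate 5-point dilutions topping out at 10-20 μM. Percent inhibition versus untreated and cell-free wells, IC50 derived by linear regression.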

Row | SMILES | IC50 [nM]
1 | COc1c(N2CCN(c3ccccc3C#N)CC2)c(F)cc2c(=O)c(C(=O)O)cn(-c3ccc(CN(C)C)cc3)c12 [Example 95, 7-[4-(2-cyanophenyl)piperazin-1-yl]-1-{4-[(dimethylamino)methyl]phenyl}-6-fluoro-8-methoxy-4-oxo-1,4-dihydroquinoline-3-carboxylic acid] | 500 to 2000
2 | COc1c(N2CCN(c3ccc(Cl)cc3)CC2)c(F)cc2c(=O)c(C(=O)O)cn(-c3ccc(CN4CCCC4)cc3)c12 [Example 80, 7-[4-(4-chlorophenyl)piperazin-1-yl]-6-fluoro-8-methoxy-4-oxo-1-[4-(pyrrolidin-1-ylmethyl)phenyl]-1,4-dihydroquinoline-3-carboxylic acid] | 500 to 2000
3 | CON(C)Cc1ccc(-n2cc(C(=O)O)c(=O)c3cc(F)c(N4CCN(c5ccc(Cl)cc5)CC4)c(Cl)c32)cc1 [Example 52, 8-chloro-7-[4-(4-chlorophenyl)piperazin-1-yl]-6-fluoro-1-(4-{[methoxy(methyl)amino]methyl}phenyl)-4-oxo-1,4-dihydroquinoline-3-carboxylic acid] | 2000 to 20000
4 | O=C(O)c1cn(-c2ccc(CN3CCCC3)cc2)c2c(Cl)c(N3CCN(c4ccc(Cl)cc4)CC3)c(F)cc2c1=O [Example 3, 8-chloro-6-fluoro-7-[4-(4-chlorophenyl)-piperazin-1-yl]-4-oxo-1-[4-(pyrrolidin-1-ylmethyl)phenyl]-1,4-dihydroquinoline-3-carboxylic acid] | 500 to 2000
5 | O=C(O)c1cn(-c2cccc(CN3CCCCC3)c2)c2c(Cl)c(N3CCN(c4ncccn4)CC3)c(F)cc2c1=O [Example 66, 8-chloro-6-fluoro-4-oxo-1-[3-(piperidin-1-yl-methyl)phenyl]-7-(4-pyrimidin-2-ylpiperazin-1-yl)-1,4-dihydroquinoline-3-carboxylic acid] | 2000 to 20000
6 | N#Cc1ccccc1N1CCN(c2c(F)cc3c(=O)c(C(=O)O)cn(-c4ccc(CN5CC[C@@H](O)C5)cc4)c3c2Cl)CC1 [Example 32, 8-chloro-7-[4-(2-cyanophenyl)piperazin-1-yl]-6-fluoro-1-(4-{[(3R)-3-hydroxypyrrolidin-1-yl]methyl}phenyl)-4-oxo-1,4-dihydroquinoline-3-carboxylic acid] | < 500
7 | O=C(O)c1cn(-c2cccc(CN3CCCCC3)c2)c2c(OC(F)(F)F)c(N3CCN(c4ccccn4)CC3)c(F)cc2c1=O [Example 140, 6-fluoro-4-oxo-1-[3-(piperidin-1-yl-methyl)phenyl]-7-(4-pyridin-2-ylpiperazin-1-yl)-8-(trifluoromethoxy)-1,4-dihydroquinoline-3-carboxylic acid] | 500 to 2000
8 | COCCN(C)Cc1ccc(-n2cc(C(=O)O)c(=O)c3cc(F)c(N4CCN(c5ccccn5)CC4)c(Cl)c32)cc1 [Example 55] | 500 to 2000
9 | O=C(O)c1cn(-c2ccc(CN3CCCC3)nc2)c2c(Cl)c(N3CCN(c4ccc(Cl)cc4)CC3)c(F)cc2c1=O [Example 38, 8-chloro-7-[4-(4-chlorophenyl)piperazin-1-yl]-6-fluoro-4-oxo-1-[6-(pyrrolidin-1-ylmethyl)pyridin-3-yl]-1,4-dihydroquinoline-3-carboxylic acid] | < 500
10 | O=C(O)c1cn(-c2ccc(CN3CCCC3)cc2)c2c(Cl)c(N3CCN(c4ncccc4C(F)(F)F)CC3)c(F)cc2c1=O [Example 14, 8-chloro-6-fluoro-4-oxo-1-[4-(pyrrolidin-1-yl-methyl)phenyl]-7-{4-[3-(trifluoromethyl)pyridin-2-yl]piperazin-1-yl}-1,4-dihydroquinoline-3-carboxylic acid] | 500 to 2000
11 | COc1c(N2CCN(c3ccc(Cl)cc3)CC2)c(F)cc2c(=O)c(C(=O)O)cn(-c3ccc(CN4CCCCC4)cc3)c12 [Example 90, 7-[4-(4-chlorophenyl)piperazin-1-yl]-6-fluoro-8-methoxy-4-oxo-1-[4-(piperidin-1-ylmethyl)phenyl]-1,4-dihydroquinoline-3-carboxylic acid] | < 500
12 | COc1c(N2CCN(c3ccc(C#N)cc3)CC2)c(F)cc2c(=O)c(C(=O)O)cn(-c3ccc(CN(C)C)cc3)c12 [Example 102, 7-[4-(4-cyanophenyl)piperazin-1-yl]-1-{4-[(dimethylamino)methyl]phenyl}-6-fluoro-8-methoxy-4-oxo-1,4-dihydroquinoline-3-carboxylic acid] | < 500
13 | CN(Cc1ccc(-n2cc(C(=O)O)c(=O)c3cc(F)c(N4CCN(c5ncccn5)CC4)c(Cl)c32)cc1)C1CCCCC1 [Example 62, 8-chloro-1-(4-{[cyclohexyl(methyl)amino]-methyl}phenyl)-6-fluoro-4-oxo-7-(4-pyrimidin-2-ylpiperazin-1-yl)-1,4-dihydroquinoline-3-carboxylic acid] | < 500
14 | NC(=O)c1cccnc1N1CCN(c2c(F)cc3c(=O)c(C(=O)O)cn(-c4ccc(CN5CCCC5)cc4)c3c2Cl)CC1 [Example 9, 7-{4-[3-(aminocarbonyl)pyridin-2-yl]piperazin-1-yl}-8-chloro-6-fluoro-4-oxo-1-[4-(pyrrolidin-1-ylmethyl)phenyl]-1,4-dihydroquinoline-3-carboxylic acid] | 500 to 2000
15 | N#Cc1cccnc1N1CCN(c2c(F)cc3c(=O)c(C(=O)O)cn(-c4ccc(CN5CCCC5)cc4F)c3c2Cl)CC1 [Example 45, 8-chloro-7-[4-(3-cyanopyridin-2-yl)piperazin-1-yl]-6-fluoro-1-[2-fluoro-4-(pyrrolidin-1-ylmethyl)phenyl]-4-oxo-1,4-dihydroquinoline-3-carboxylic acid] | < 500
16 | O=C(O)c1cn(-c2ccc(CN3CCCC3)cc2)c2c(OC(F)(F)Cl)c(N3CCN(c4ccc(Cl)cc4)CC3)c(F)cc2c1=O [Example 148, 8-[chloro(difluoro)methoxy]-7-[4-(4-chlorophenyl)piperazin-1-yl]-6-fluoro-4-oxo-1-[4-(pyrrolidin-1-ylmethyl)phenyl]-1,4-dihydroquinoline-3-carboxylic acid] | < 500
17 | CN(C)Cc1ccc(-n2cc(C(=O)O)c(=O)c3cc(F)c(N4CCN(c5ncccn5)CC4)c(OC(F)(F)Cl)c32)cc1 [Example 157, 8-[chloro(difluoro)methoxy]-1-{4-[(dimethylamino)methyl]phenyl}-6-fluoro-4-oxo-7-(4-pyrimidin-2-ylpiperazin-1-yl)-1,4-dihydroquinoline-3-carboxylic acid] | 500 to 2000

Next, values leading:

Row | IC50 [nM] | SMILES
18 | < 500 | Cc1cccnc1N1CCN(c2c(F)cc3c(=O)c(C(=O)O)cn(-c4ccc(CN5CCCC5)cc4F)c3c2Cl)CC1 [Example 44, 8-chloro-6-fluoro-1-[2-fluoro-4-(pyrrolidin-1-ylmethyl)phenyl]-7-[4-(3-methylpyridin-2-yl)piperazin-1-yl]-4-oxo-1,4-dihydroquinoline-3-carboxylic acid]
19 | < 500 | CCN(CC)Cc1ccc(-n2cc(C(=O)O)c(=O)c3cc(F)c(N4CCN(c5ccc(F)cc5)CC4)c(OC(F)(F)Cl)c32)cc1 [Example 163, 8-[chloro(difluoro)methoxy]-1-{4-[(diethylamino)methyl]phenyl}-6-fluoro-7-[4-(4-fluorophenyl)piperazin-1-yl]-4-oxo-1,4-dihydroquinoline-3-carboxylic acid]
20 | < 500 | CN(C)Cc1ccc(-n2cc(C(=O)O)c(=O)c3cc(F)c(N4CCN(c5ncccn5)CC4)c(OC(F)(F)F)c32)cc1 [Example 128, 1-{4-[(dimethylamino)methyl]phenyl}-6-fluoro-4-oxo-7-(4-pyrimidin-2-ylpiperazin-1-yl)-8-(trifluoromethoxy)-1,4-dihydroquinoline-3-carboxylic acid]
21 | < 500 | COc1cc(CN2CCCC2)ccc1-n1cc(C(=O)O)c(=O)c2cc(F)c(N3CCN(c4ccc(F)cc4)CC3)c(Cl)c21 [Example 176, 8-chloro-6-fluoro-7-[4-(4-fluorophenyl)-piperazine-1-yl]-1-(2-methoxy-4-pyrrolidin-1-ylmethyl-phenyl)-4-oxo-1,4-dihydroquinoline-3-carboxylic acid]
22 | < 500 | COc1c(N2CCN(c3ccc(C#N)cc3)CC2)c(F)cc2c(=O)c(C(=O)O)cn(-c3ccc(CN4CCCC4)cc3)c12 [Example 77, 7-[4-(4-cyanophenyl)piperazin-1-yl]-6-fluoro-8-methoxy-4-oxo-1-[4-(pyrrolidin-1-ylmethyl)phenyl]-1,4-dihydroquinoline-3-carboxylic acid]
23 | < 500 | O=C(O)c1cn(-c2ccc(CN3CCCC3)cc2)c2c(OC(F)(F)F)c(N3CCN(c4ccc(F)cc4)CC3)c(F)cc2c1=O [Example 121, 6-fluoro-7-[4-(4-fluorophenyl)piperazin-1-yl]-4-oxo-1-[4-(pyrrolidin-1-ylmethyl)phenyl]-8-(trifluoromethoxy)-1,4-dihydroquinoline-3-carboxylic acid]
24 | < 500 | O=C(O)c1cn(-c2ccc(CN3CC[C@H](O)C3)cc2)c2c(Cl)c(N3CCN(c4ccccn4)CC3)c(F)cc2c1=O [Example 28, 8-chloro-6-fluoro-1-(4-{[(3S)-3-hydroxypyrrolidin-1-yl]methyl}phenyl)-4-oxo-7-(4-pyridin-2-ylpiperazin-1-yl)-1,4-dihydroquinoline-3-carboxylic acid]
25 | < 500 | O=C(O)c1cn(-c2ccc(CN3CC[C@@H](O)C3)cc2)c2c(Cl)c(N3CCN(c4ccc(F)cc4)CC3)c(F)cc2c1=O [Example 31, 8-chloro-6-fluoro-7-[4-(4-fluorophenyl)-piperazin-1-yl]-1-(4-{[(3R)-3-hydroxypyrrolidin-1-yl]methyl}phenyl)-4-oxo-1,4-dihydroquinoline-3-carboxylic acid]
26 | < 500 | COc1c(N2CCN(c3ccc(C#N)cc3)CC2)c(F)cc2c(=O)c(C(=O)O)cn(-c3ccc(CN4CCCCC4)cc3)c12 [Example 192, 7-[4-(4-cyanophenyl)-piperazine-1-yl]-6-fluoro-8-methoxy-4-oxo-1-(4-piperidin-1-ylmethyl-phenyl)-1,4-dihydroquinoline-3-carboxylic acid]
